These are literature values, as cited in patent US12636263B2, “Carotenoid compound coming from plant and containing natural astaxanthin, preparation method therefor, and composition” (Zhejiang Medicine Co., Ltd. Xinchang Pharmaceutical Factory, priority 2013, dated 2026).

For data set [1] the following is noted: in animal body.
For data set [2] the following is noted: versus natural VE.
For data set [3] the following is noted: in vivo; Johnson and An, Crit. Rev. Biotechnol, 1991.

For `CC1=C(/C=C/C(C)=C/C=C/C(C)=C/C=C/C=C(C)/C=C/C=C(C)/C=C/C2=C(C)C(=O)[C@@H](O)CC2(C)C)C(C)(C)C[C@H](O)C1=O` [(3 S, 3′S)-configuration, all-trans (3S, 3′S)-astaxanthin], the “bioavailability, higher than that of (3 R, 3 R)′-configuration” value in data set [1] was 15 wt %.
`CC1=C(/C=C/C(C)=C/C=C/C(C)=C/C=C/C=C(C)/C=C/C=C(C)/C=C/C2=C(C)C(=O)C(O)CC2(C)C)C(C)(C)CC(O)C1=O` (stereo not drawn) [astaxanthin, 3,3′-dihydroxy-4,4′-diketo-β,β′-carotene]: the “oxidizability (antioxidant) relative to natural VE” value in data set [2] is 1000 times. Besides, the “bioavailability, higher than that of astaxanthin in the form of fatty acid ester” value in data set [3] is “higher than 15%”.
